Source: patent US11766434B2, “Pyrimidinone derivatives as CDC7 inhibitors” (Cancer Research Technology Limited, priority 2016, dated 2023)

Target: Cdc7/ASK (Homo sapiens, UniProt O00311)
Experiment: Cdc7 biochemical assay Method 1: 384 well ELISA, MCM2 whole protein substrate, Phospho MCM2 (S53) antibody
Design: purchased
Details: ATP 2 μM, 90 minutes, read-out: Biochemical method 1 (pIC50) (converted)
In short: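 Commercial Cdc7/ASK phosphorylates plate-bound MCM2 with 2 μM ATP in Tris pH 8.5/MgCl2/DTT, 4% DMSO, 90 min at room temperature. Phospho-MCM2 (S53) detected by antibody ELISA with AP/PNPP absorbance. Inhibition normalised to DMSO and no-enzyme controls; IC50 from curve fit.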

Chain of Cdc7/ASK (O00311 whole entry): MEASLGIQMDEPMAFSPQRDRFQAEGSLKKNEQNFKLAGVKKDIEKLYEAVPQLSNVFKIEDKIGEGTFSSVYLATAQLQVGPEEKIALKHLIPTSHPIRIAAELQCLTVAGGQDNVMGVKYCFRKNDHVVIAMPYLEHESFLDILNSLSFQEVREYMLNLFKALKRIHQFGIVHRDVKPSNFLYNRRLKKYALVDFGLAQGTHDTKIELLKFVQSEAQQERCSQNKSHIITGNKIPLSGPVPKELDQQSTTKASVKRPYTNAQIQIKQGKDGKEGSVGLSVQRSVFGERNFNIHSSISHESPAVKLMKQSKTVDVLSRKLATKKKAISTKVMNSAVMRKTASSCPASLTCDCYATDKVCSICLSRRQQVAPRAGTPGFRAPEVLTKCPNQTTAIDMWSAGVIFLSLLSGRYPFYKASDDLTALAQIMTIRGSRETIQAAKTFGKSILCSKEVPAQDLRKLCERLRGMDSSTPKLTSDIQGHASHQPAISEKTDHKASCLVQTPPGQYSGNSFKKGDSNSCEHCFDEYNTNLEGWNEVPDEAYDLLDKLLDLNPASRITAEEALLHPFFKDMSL
Chain of Cdc7/ASK (Q9UBU7 whole entry partner): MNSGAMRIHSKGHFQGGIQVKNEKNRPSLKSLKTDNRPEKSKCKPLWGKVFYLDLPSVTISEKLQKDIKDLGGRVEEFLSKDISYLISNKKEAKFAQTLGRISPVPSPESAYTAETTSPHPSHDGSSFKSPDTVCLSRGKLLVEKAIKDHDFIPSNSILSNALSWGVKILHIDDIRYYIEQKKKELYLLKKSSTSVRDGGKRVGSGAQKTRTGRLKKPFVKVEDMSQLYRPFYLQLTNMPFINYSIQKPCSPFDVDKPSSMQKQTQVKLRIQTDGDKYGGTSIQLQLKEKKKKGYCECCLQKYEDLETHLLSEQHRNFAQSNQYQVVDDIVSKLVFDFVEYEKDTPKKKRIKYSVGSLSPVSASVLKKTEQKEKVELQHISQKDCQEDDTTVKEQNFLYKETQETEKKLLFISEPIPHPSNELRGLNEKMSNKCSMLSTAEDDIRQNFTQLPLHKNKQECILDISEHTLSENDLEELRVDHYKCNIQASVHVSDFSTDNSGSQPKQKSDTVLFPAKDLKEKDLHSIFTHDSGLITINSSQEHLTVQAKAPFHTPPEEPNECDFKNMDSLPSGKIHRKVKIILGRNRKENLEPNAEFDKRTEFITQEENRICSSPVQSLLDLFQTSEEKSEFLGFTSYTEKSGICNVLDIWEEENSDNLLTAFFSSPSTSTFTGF

SMILES: O=c1[nH]c(-c2scnc2C(F)(F)F)nc(C2CCOCC2)c1Cl [Compound 14, 5-chloro-4-tetrahydropyran-4-yl-2-[4-(trifluoromethyl)thiazol-5-yl]-1H-pyrimidin-6-one]
- IC50: 1.82 nM

SMILES: O=c1[nH]c(-c2cn[nH]c2C(F)(F)F)nc(C2CCOCC2)c1Cl [Compound 17, 5-chloro-4-tetrahydropyran-4-yl-2-[5-(trifluoromethyl)-1H-pyrazol-4-yl]-1H-pyrimidin-6-one]
- IC50: 1.2 nM

SMILES: Cc1ncsc1-c1nc(N2CCN[C@@H](C(F)(F)F)C2)c(Cl)c(=O)[nH]1 [Compound 28, 5-chloro-2-(4-methylthiazol-5-yl)-4-[(3R)-3-(trifluoromethyl)piperazin-1-yl]-1H-pyrimidin-6-one]
- IC50: 2.09 nM

SMILES: O=c1[nH]c(-c2scnc2Cl)nc(C2CCOCC2)c1Cl [Compound 4, 5-chloro-2-(4-chlorothiazol-5-yl)-4-tetrahydropyran-4-yl-1H-pyrimidin-6-one]
- IC50: 1.62 nM

SMILES: Cc1ncsc1-c1nc(C2CCOCC2)c(Cl)c(=O)[nH]1 [Compound 6, 5-chloro-2-(4-methylthiazol-5-yl)-4-tetrahydropyran-4-yl-1H-pyrimidin-6-one]
- IC50: 3.8 nM
